According to US8455497B2, “Inhibitors of aspartyl protease” (Vertex Pharmaceuticals Incorporated, priority 1999, dated 2013):
Where two headings read alike, the source gives them in different places.

What was measured:
[1] = system: D545701-14 multi protease inhibitor resistant virus; experiment: Anti-viral activity against resistant virus D545701-14 in MT4 cells; type: cell-based, HIV-1
Description: (§1) Exponentially growing MT4 cells were harvested and centrifuged at 1000 rpm for 10 min in a Jouan centrifuge (model CR 4 12). […] Cell aliquots were infected by the addition of HIV-1 (strain IIIB) diluted to give a viral multiplicity of infection of 100×TCID50. […] Cell infection was allowed to proceed for 1 hr at 37° in a tissue culture incubator with humidified 5% CO2 atmosphere. After the 1 hr incubation the virus/cell suspensions were diluted 6-fold with fresh medium, and 125 μl of the cell suspension was added to each well of the plate containing pre-diluted compound. Plates were then placed in a tissue culture incubator with humidified 5% CO2 for 5 days. At the end of the incubation period, 27 μl of 5% Nonidet-40 was added to each well of the incubation plate. After thorough mixing with a Costar multitip pipetter, 60 μl of the mixture was transferred to filter-bottomed 96-well plates. The plates were analyzed in an automated assay instrument (Screen Machine, Idexx Laboratories). The assay makes use of a propidium iodide dye to estimate the DNA content of each well.
(§2) Anti-Viral Activity Against Resistant Viruses
EP13 and DS45701, two multi protease inhibitor resistant viruses were used to assess potency against mutant viruses. These viruses contain the following mutations relative to the consensus sequence of wild type virus: […]

[2] = system: EP13 multi protease inhibitor resistant virus; experiment: Anti-viral activity against resistant virus EP13 in MT4 cells; type: cell-based, HIV-1
Description: as §1, §2
EP13 and DS45701, two multi protease inhibitor resistant viruses were used to assess potency against mutant viruses. These viruses contain the following mutations relative to the consensus sequence of wild type virus:
EP13: Protease amino acid sequence: M46I, L63P, A71V, V82F/L, I84V; No reverse transcriptase mutations.

HIV-1 (strain IIIB) = experiment: Antiviral activity assay in MT4 cells (propidium iodide based); type: cell-based
Summary of the method: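 Compound serial dilutions in RPMI/FCS received MT4 cells pre-infected 1 hr at 37°C with HIV-1 IIIB at 100×TCID50. After 5 days' culture and Nonidet-40 lysis, well DNA content was measured by propidium iodide dye; mock-infected cells served as control.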

[3] = Human immunodeficiency virus 1, MT4, read-out: D545701-14 mutant - IC50, D545701-14 multi protease inhibitor resistant virus, MT4 cells
[4] = Human immunodeficiency virus 1, MT4, read-out: EP13 mutant IC50, EP13 multi protease inhibitor resistant virus, MT4 cells
[5] = Human immunodeficiency virus 1, IIIB, wild type HIV-1 virus, MT4 cells, read-out: Wildtype virus - IC50
[6] = Human immunodeficiency virus 1, MT4, 120 h, MT-4 cells, HIV-1 strain IIIB, 5 days, read-out: IC50 (Antiviral Activity of Compounds of the Invention)
[7] = D545701-14 multi protease inhibitor resistant virus, MT4 cells, read-out: D545701-14 mutant - IC50
[8] = EP13 multi protease inhibitor resistant virus, MT4 cells, read-out: EP13 mutant IC50
[9] = wild type HIV-1 virus, MT4 cells, read-out: Wildtype virus - IC50

SMILES	IC50 [1, 3] [nM]	IC50 [2, 4] [nM]	IC50 (HIV-1 (strain IIIB); [5]) [nM]	further results
CC(C)CN(C[C@@H](O)[C@H](Cc1ccc(OCCCNc2cc[nH]n2)cc1)NC(=O)OC1CO[C@H]2OCC[C@@H]12)S(=O)(=O)c1ccc2c(c1)OCO2 (stereo in doubt) [Compound 281, (3R,3aS,6aR)-hexahydrofuro[2,3-b]furan-3-yl (1S,2R)-3-[(1,3-benzodioxol-5-ylsulfonyl)(isobutyl)amino]-2-hydroxy-1-{4-[3-(1H-pyrazol-3-ylamino)propoxy]benzyl}propylcarbamate]	1 to 10	1 to 10	1 to 10	
CNC(=O)CCCOc1ccc(C[C@H](NC(=O)OC2CO[C@H]3OCC[C@@H]23)[C@H](O)CN(CC(C)C)S(=O)(=O)c2ccc3c(c2)OCO3)cc1 (stereo in doubt) [Compound 286, (3R,3aS,6aR)-hexahydrofuro[2,3-b]furan-3-yl (1S,2R)-3-[(1,3-benzodioxol-5-ylsulfonyl)(isobutyl)amino]-2-hydroxy-1-{4-[4-(methylamino)-4-oxobutoxy]benzyl}propylcarbamate]	1 to 10	1 to 10	10 to 100	
CC(C)CN(C[C@@H](O)[C@H](Cc1ccc(OCCCC(=O)N(C)C)cc1)NC(=O)OC1CO[C@H]2OCC[C@@H]12)S(=O)(=O)c1ccc2c(c1)OCO2 (stereo in doubt) [Compound 287, (3R,3aS,6aR)-hexahydrofuro[2,3-b]furan-3-yl (1S,2R)-3-[(1,3-benzodioxol-5-ylsulfonyl)(isobutyl)amino]-1-{4-[4-(dimethylamino)-4-oxobutoxy]benzyl}-2-hydroxypropylcarbamate]	1 to 10	1 to 10	1 to 10	
CC(C)CN(CC(O)[C@H](Cc1ccc(OCc2ccccn2)cc1)NC(=O)O[C@H]1CO[C@H]2OCC[C@H]21)S(=O)(=O)c1ccc2c(c1)OCCO2 (stereo in doubt) [Compound 337, (3R,3aS,6aR)-hexahydrofuro[2,3-b]furan-3-yl (1S,2S)-3-[(2,3-dihydro-1,4-benzodioxin-6-ylsulfonyl)(isobutyl)amino]-2-hydroxy-1-[4-(2-pyridinylmethoxy)benzyl]propylcarbamate]	1 to 10	1 to 10	1 to 10	
CC(C)CN(C[C@@H](O)[C@H](Cc1ccc(OCc2cccnc2)cc1)NC(=O)O[C@H]1CO[C@H]2OCC[C@H]21)S(=O)(=O)c1ccc2c(c1)OCO2 [Compound 52, Bis-THF Methylenedioxybenzenesulfonamide 3-picolyl Tethered Product]	1 to 10	1 to 10	10 to 100	IC50 (HIV-1 (strain IIIB); [6]): 1 to 10 nM
CC(C)CN(C[C@@H](O)[C@H](Cc1ccc(OCc2ccccn2)cc1)NC(=O)O[C@H]1CO[C@H]2OCC[C@H]21)S(=O)(=O)c1ccc2c(c1)OCO2 [Compound 53, Bis-THF Methylenedioxybenzenesulfonamide 2-picolyl Tethered Product]	1 to 10	1 to 10	1 to 10	IC50 (HIV-1 (strain IIIB); [6]): 1 to 10 nM
CC(C)CN(C[C@@H](O)[C@H](Cc1ccc(OCc2ccncc2)cc1)NC(=O)O[C@H]1CO[C@H]2OCC[C@H]21)S(=O)(=O)c1ccc2c(c1)OCO2 [Compound 54, Bis-THF Methylenedioxybenzenesulfonamide 4-picolyl Tethered Product]	1 to 10	1 to 10	10 to 100	IC50 (HIV-1 (strain IIIB); [6]): 1 to 10 nM
Cc1cc(COc2ccc(C[C@H](NC(=O)O[C@H]3CO[C@H]4OCC[C@H]43)[C@H](O)CN(CC(C)C)S(=O)(=O)c3ccc4c(c3)OCO4)cc2)no1 [Compound 55, Bis-THF Methylenedioxybenzenesulfonamide 3-methyl-5-methylisoxazole Tethered Product]	1 to 10	1 to 10		IC50 (HIV-1 (strain IIIB); [6]): < 1 nM
CC(C)CN(C[C@@H](O)[C@H](Cc1ccc(OCCc2ccccc2)cc1)NC(=O)O[C@H]1CO[C@H]2OCC[C@H]21)S(=O)(=O)c1ccc2c(c1)OCO2 [Compound 202, (3R,3aS,6aR)hexahydrofuro[2,3-b]furan-3-yl (1S,2R)-3-[(1,3-benzodioxol-5-ylsulfonyl)(isobutyl)amino]-2-hydroxy-1-[4-(phenethyloxy)benzyl]propylcarbamate]	1 to 10	< 1	< 1	
CC(C)CN(C[C@@H](O)[C@H](Cc1ccc(OCCCc2ccccc2)cc1)NC(=O)O[C@H]1CO[C@H]2OCC[C@H]21)S(=O)(=O)c1ccc2c(c1)OCO2 [Compound 203, (3R,3aS,6aR)hexahydrofuro[2,3-b]furan-3-yl (1S,2R)-3-[(1,3-benzodioxol-5-ylsulfonyl)(isobutyl)amino]-2-hydroxy-1-[4-([3-phenylpropyl]oxy)benzyl]propylcarbamate]		1 to 10	< 1	IC50 ([1]; read-out: D545701-14 mutant - IC50, D545701-14 multi protease inhibitor resistant virus, MT4 cells): 10 to 100 nM
CC(C)CN(C[C@@H](O)[C@H](Cc1ccc(OCCCC(F)(F)F)cc1)NC(=O)O[C@H]1CO[C@H]2OCC[C@H]21)S(=O)(=O)c1ccc2c(c1)OCCO2 [Compound 204, (3R,3aS,6aR)-hexahydrofuro[2,3-b]furan-3-yl (1S,2R)-3-[(2,3-dihydro-1,4-benzodioxin-6-ylsulfonyl)(isobutyl)amino]-2-hydroxy-1-[4-(4,4,4-trifluorobutoxy)benzyl]propylcarbamate]	1 to 10	1 to 10	1 to 10	
CC(C)CN(C[C@@H](O)[C@H](Cc1ccc(OCCc2ccc(F)cc2)cc1)NC(=O)O[C@H]1CO[C@H]2OCC[C@H]21)S(=O)(=O)c1ccc2c(c1)OCO2 [Compound 205]				IC50 [1, 7]: 10 to 100 nM; IC50 [2, 8]: 10 to 100 nM; IC50 (HIV-1 (strain IIIB); [9]): 1 to 10 nM
COc1ccc(CCOc2ccc(C[C@H](NC(=O)O[C@H]3CO[C@H]4OCC[C@H]43)[C@H](O)CN(CC(C)C)S(=O)(=O)c3ccc4c(c3)OCO4)cc2)cc1 [Compound 206]				IC50 [1, 7]: 10 to 100 nM; IC50 [2, 8]: 10 to 100 nM; IC50 (HIV-1 (strain IIIB); [9]): 1 to 10 nM
CC(C)CN(C[C@@H](O)[C@H](Cc1ccc(OCCNC(=O)OC(C)(C)C)cc1)NC(=O)O[C@H]1CO[C@H]2OCC[C@H]21)S(=O)(=O)c1ccc2c(c1)OCO2 [Compound 219, (3R,3aS,6aR)-hexahydrofuro[2,3-b]furan-3-yl (1S,2R)-3-[(1,3-benzodioxol-5-ylsulfonyl)(isobutyl)amino]-1-(4-{2-[(tert-butoxycarbonyl)amino]ethoxy}benzyl)-2-hydroxypropylcarbamate]	1 to 10	1 to 10	1 to 10	
CC(C)CN(C[C@@H](O)[C@H](Cc1ccc(OCCCNC(=O)OC(C)(C)C)cc1)NC(=O)O[C@H]1CO[C@H]2OCC[C@H]21)S(=O)(=O)c1ccc2c(c1)OCO2 [Compound 221, (3R,3aS,6aR)-hexahydrofuro[2,3-b]furan-3-yl (1S,2R)-3-[(1,3-benzodioxol-5-ylsulfonyl)(isobutyl)amino]-1-(4-{3-[(tert-butoxycarbonyl)amino]propoxy}benzyl)-2-hydroxypropylcarbamate]	1 to 10	1 to 10	1 to 10	
CC(C)CN(C[C@@H](O)[C@H](Cc1ccc(OCCCCNC(=O)OC(C)(C)C)cc1)NC(=O)O[C@H]1CO[C@H]2OCC[C@H]21)S(=O)(=O)c1ccc2c(c1)OCO2 [Compound 223, (3R,3aS,6aR)-hexahydrofuro[2,3-b]furan-3-yl (1S,2R)-3-(1,3-benzodioxol-5-ylsulfonyl)(isobutyl)amino-1-(4-{4-[(tert-butoxycarbonyl)amino]butoxy}benzyl)-2-hydroxypropylcarbamate]	1 to 10	1 to 10	1 to 10	
COC(=O)NCCOc1ccc(C[C@H](NC(=O)O[C@H]2CO[C@H]3OCC[C@H]32)[C@H](O)CN(CC(C)C)S(=O)(=O)c2ccc3c(c2)OCO3)cc1 [Compound 226, (3R,3aS,6aR)-hexahydrofuro[2,3-b]furan-3-yl (1S,2R)-3-[(1,3-benzodioxol-5-ylsulfonyl)(isobutyl)amino]-2-hydroxy-1-(4-{2-[(methoxycarbonyl)amino]ethoxy}benzyl)propylcarbamate]			< 1	IC50 ([1]; Human immunodeficiency virus 1, MT4, read-out: D545701-14 mutant - IC50): 1 to 10 nM; IC50 ([2]; Human immunodeficiency virus 1, MT4, read-out: EP13 mutant IC50): < 1 nM
CC(=O)NCCCOc1ccc(C[C@H](NC(=O)O[C@H]2CO[C@H]3OCC[C@H]32)[C@H](O)CN(CC(C)C)S(=O)(=O)c2ccc3c(c2)OCO3)cc1 [Compound 229]				IC50 [1, 7]: 1 to 10 nM; IC50 [2, 8]: 1 to 10 nM; IC50 (HIV-1 (strain IIIB); [9]): 10 to 100 nM
